Laboratory results: patent US6747061B2, “N-substituted dithiocarbamates for the treatment of biological disorders” (AtheroGenics, Inc., priority 2000, dated 2004)

Test system: eotaxin
Assay: Eotaxin assay: enzyme immunoassay of TNF-α and IL-4 induced eotaxin expression in BEAS-2B cells
Format: cell-based
Conditions: Homo sapiens, TNF 10 ng/ml + IL-4, approximately 16 hours
Method: The eotaxin assay is an enzyme immunoassay to measure tumor necrosis factor alpha (TNF-α) and interleukin-4 (IL-4) induced expression of eotaxin in a human epithelial cell line (BEAS-2B).
BEAS-2B cells purchased from ATCC and maintained in DMEM/F12 plus 10% serum and penicillin plus streptomycin. In a typical experiment, cells were seeded in 96-well plates. The next day cells were stimulated with TNF (10 ng/ml)+IL-4 ([…]) in the presence or absence of compounds dissolved in dimethylsulphoxide (DMSO) in DMEM/F12 plus 1% rabbit serum albumin (RSA). To establish a dose curve for each compound, three concentrations in 2 fold increments were used. Cells were exposed to cytokines and compounds for approximately 16 hours. The next day, the cells were examined under microscope to score for visual signs of toxicity. The culture media was used to measure eotaxin level.
100 μl of anti-human eotaxin monoclonal antibody (3 μg/ml) purchased from R & D Systems was used to coat 96-well plates overnight at room temperature. […] 2N sulphuric acid stopped the color development and data were collected by a microplate reader set at O.D. 450 nm. The results were expressed as the percentage of control sample (cells stimulated by TNF without any compound).

## COC(=O)CCCSC(=S)NCC1CCCO1 (stereo not shown) [NDE, 4-(tetrahydrofuran-2-ylmethylthiocarbamoylsulfanyl)-butyric acid methyl ester]
  IC50: 6 µM
